Where “and” joins values, the source holds several entries; their conditions need not be identical. Identical values can stand only once. Marks after values point to notes of the source that are not given here.
Key:
[1] = system: commercial finishing pigs (PIC 800×PIC 1050); test: Carcass characteristics of finishing pigs fed increasing dietary 78% Na-DMG (Example 1); assay type: in vivo; details: for 10th-rib backfat depth reduction (numerical) / Loin depth improvement compared to Control: carcasses; for Loin depth improvement compared to Control: P<0.05
Method: A study was conducted to evaluate the impact of increasing dietary levels of 78% Na-DMG on carcass characteristics of commercial finishing pigs (PIC 800×PIC 1050). A total of 723 mixed-sex finishing pigs (initial BW=179.5±1.0 lb) were housed in pens with 25 to 27 pigs per pen. […] This experiment extended over a 6-week period until pigs were harvested at 292.5±1.7 lb of BW.

sows (PIC 1050) = test: Milk fat content in sows fed Na-DMG (78%) (Example 2); assay type: in vivo, pigs
[2] = system: commercial finishing pigs; test: Growth performance, livability and carcass characteristics of finishing pigs fed DMG (Example 3); assay type: in vivo; details: for ADFI / Carcass yield / Closeout ADG / Closeout G/F / End BW / Fat depth / Fat-free carcass lean / Hot carcass weight / Loin depth / Non-selected pigs (lights and culls) / Morbidity / Mortality / Pigs sold to primary market: 8-wk
Text: To evaluate the impact of increasing dietary levels of 78% sodium dimethylglycine (DMG) on growth performance, livability, and carcass characteristics of commercial finishing pigs, a total of total of 1,115 mixed-sex finishing pigs (initial BW=70.1±1.8 kg) were housed in pens with 25 to 27 pigs per pen. Pens within block were assigned randomly to one of four dietary treatments containing 0 (Control), 0.25 (DMG_0.25), 0.5 (DMG_0.5) or 1.0 (DMG_1.0) g DMG/kg of feed with 11 replicates per treatment. This experiment extended over an 8-wk period until pigs were harvested at 125.4±0.8 kg of BW.
Data were analyzed using the MIXED procedure of SAS, and preplanned orthogonal contrasts were conducted to evaluate pairwise comparisons as well as linear and quadratic effects related to the increased levels of DMG. While no linear effect was observed, there was a tendency for a quadratic response in closeout feed efficiency (G/F, P=0.08) and the percentage of pigs with morbidity (P=0.06), with the most favorable responses found in pigs fed DMG_0.25 (Table 2).

growing pigs = test: Incidence of lameness in pigs fed DMG (Example 4); assay type: in vivo
Method: A total of 1,180 growing pigs (initial BW=51.4±1.0 lb) were housed in pens with 25 to 27 pigs per pen. […] This experiment extended over a 17-wk period until pigs were harvested at 292.5±1.7 lb of BW. Signs of lameness were recorded, and percentage of pigs removed to hospital pens due to lameness were calculated (Table 3).

finishing pigs = test: Meta-analysis (3-trial combined) of morbidity, mortality and F/G in late finishing pigs fed Na-DMG (Examples 5 and 7); assay type: in vivo
Text: Three studies were compiled to evaluate the effects of dietary supplementation of Na-DMG (78%) on morbidity and mortality in finishing pigs. In each study, pigs were fed either a Control diet or diet containing Na-DMG at 0.50 lb/ton from approximately 180 lb of body weight until harvested at 290 lb for a period of 6 to 8 weeks. […] Reasons of morbidity and mortality included, but not limited to, lameness, ileitis, bacterial infection, injury, prolapse, intestinal torsion, stomach ulcers, abdominal rupture, bloat, failure to eat.
(§1) Animals produce greenhouse gases due to biological processes for growth and maintenance functions. Pig production would therefore be a source of greenhouse gases and wean to finish production would result in production of carbon dioxide, methane, and nitrous oxide emissions. Using the Iowa Pork Industry's sustainability calculator, we calculated the impact feedings of DMG in late finishing would have on greenhouse gas emissions. […] We then took similar estimates for early performance and estimated F/G and mortality for an entire grow-out period to use in the calculator. The calculator provides equivalent lb. of carbon dioxide per lb. or market weight for comparison purposes. By adding DMG in late finishing, carbon dioxide emissions were reduced by 3% during the entire wean to finish grow-out.

lactating sows = test: Serum non-esterified fatty acids (NEFA) in lactating sows (Example 6); assay type: in vivo, pigs; details: 445 mg Na-DMG per day, measured at weaning
Text: Serum non-esterified fatty acids (NEFA) are molecules released from adipose tissue during periods of energy demand or catabolic status. In research of energy metabolism, NEFA level has been used as biomarker to assess balance between fat mobilization and energy expenditure.

[3] = Calculated wean-to-finish performance and greenhouse gas emissions, Pork Sustainability Calculator (Example 7); parameters: species or system pigs; details: DMG @ 0.5 lb/ton in late finishing
Text: as §1

rats = details: when folate was sufficient; cited from earlier work
sows = sows fed DMG from day 105 of gestation until day 3 of lactation; cited from earlier work
broilers = details: cited from earlier work
[4] = Na-DMG 0.50 lb/ton, approx. 180 to 290 lb BW, 6 to 8 weeks

For CN(C)CC(=O)O [DMG, N,N-dimethylglycine], the Fat-free carcass lean ([1]; DMG at 0.25 lb/ton, P<0.10) was “tended to be improved”, the “10th-rib backfat depth reduction (numerical)” value ([1]; DMG at 0.25 lb/ton) was 3.4% and the “Loin depth improvement compared to Control” value ([1]; DMG at 0.25 lb/ton) was 2.5%. For the same compound, the “10th-rib backfat depth reduction (numerical)” value ([1]; DMG at 0.50 lb/ton) was 2.3%, the “Loin depth improvement compared to Control” value ([1]; DMG at 0.75 lb/ton) was 3.5% and the “Loin depth, response to increasing dietary DMG level” value ([1]; increasing dietary DMG level, P=0.04) was “linearly improved”. For the same compound, the “Total milk fat, % (Day 10-14 in lactation)” value (sows (PIC 1050); 0.5 lb/ton from day 100 of gestation through lactation) was 6.114%, the “Total milk fat, % (Day 10-14 in lactation)” value (sows (PIC 1050); 0.5 lb/ton from farrowing through lactation) was 5.973% and the “Carcass characteristics (hot carcass weight, carcass yield, fat depth, loin depth, fat-free carcass lean)” value ([2]; 0.25, 0.5 and 1.0 g DMG/kg feed vs Control) was “not different among treatments”. The ADFI ([2]; 0.25 g DMG/kg feed) was 3.00^b kg/day, the Carcass yield ([2]; 0.25 g DMG/kg feed) was 72.6% and the “Closeout ADG” value ([2]; 0.25 g DMG/kg feed) was 1.01 kg/day and 1.01^y kg/day. The “Closeout G/F” value ([2]; 0.25 g DMG/kg feed) was 0.337, the “End BW” value ([2]; 0.25 g DMG/kg feed) was 126.4 kg and the Fat depth ([2]; 0.25 g DMG/kg feed) was 16.6 mm. It also gave a Fat-free carcass lean ([2]; 0.25 g DMG/kg feed) of 56.2%, a Hot carcass weight ([2]; 0.25 g DMG/kg feed) of 93.5 kg and a Loin depth ([2]; 0.25 g DMG/kg feed) of 62.5 mm. The “Non-selected pigs (lights and culls)” value ([2]; 0.25 g DMG/kg feed) was 8.7%, the “Increase in closeout ADG compared with Control” value ([2]; 0.25 g DMG/kg feed, P=0.02) was 6% and the “Increase in closeout G/F compared with Control” value ([2]; 0.25 g DMG/kg feed, P=0.05) was 4%. The ADFI ([2]; 0.5 g DMG/kg feed) was 2.93^a kg/day, the Carcass yield ([2]; 0.5 g DMG/kg feed) was 73.6% and the “Closeout ADG” value ([2]; 0.5 g DMG/kg feed) was 0.95^x kg/day. The “Closeout G/F” value ([2]; 0.5 g DMG/kg feed) was 0.326, the “End BW” value ([2]; 0.5 g DMG/kg feed) was 124.9 kg and the Fat depth ([2]; 0.5 g DMG/kg feed) was 17.0 mm. The Fat-free carcass lean ([2]; 0.5 g DMG/kg feed) was 56.0%, the Hot carcass weight ([2]; 0.5 g DMG/kg feed) was 94.1 kg and the Loin depth ([2]; 0.5 g DMG/kg feed) was 62.2 mm. The Morbidity ([2]; 0.5 g DMG/kg feed) was 0.7^cd %, the Mortality ([2]; 0.5 g DMG/kg feed) was 2.5^d % and the “Non-selected pigs (lights and culls)” value ([2]; 0.5 g DMG/kg feed) was 9.4%. For the same compound, the “Pigs sold to primary market” value ([2]; 0.5 g DMG/kg feed) was 87.4%, the ADFI ([2]; 1.0 g DMG/kg feed) was 2.99^ab kg/day and the Carcass yield ([2]; 1.0 g DMG/kg feed) was 73.8%. For the same compound, the “Closeout ADG” value ([2]; 1.0 g DMG/kg feed) was 0.97^xy kg/day, the “Closeout G/F” value ([2]; 1.0 g DMG/kg feed) was 0.323 and the “End BW” value ([2]; 1.0 g DMG/kg feed) was 125.8 kg. For the same compound, the Fat depth ([2]; 1.0 g DMG/kg feed) was 16.8 mm, the Fat-free carcass lean ([2]; 1.0 g DMG/kg feed) was 56.0% and the Hot carcass weight ([2]; 1.0 g DMG/kg feed) was 94.2 kg. For the same compound, the Loin depth ([2]; 1.0 g DMG/kg feed) was 61.7 mm, the Morbidity ([2]; 1.0 g DMG/kg feed) was 2.2^d % and the Mortality ([2]; 1.0 g DMG/kg feed) was 1.4^cd %. The “Non-selected pigs (lights and culls)” value ([2]; 1.0 g DMG/kg feed) was 6.5%, the “Pigs sold to primary market” value ([2]; 1.0 g DMG/kg feed) was 90.0% and the “Growth performance and livability compared with Control” value ([2]; DMG at 0.5 and 1.0 g/kg, P>0.10) was “not different compared with Control”. The “Lameness (pigs removed to hospital pens due to lameness)” value (growing pigs; DMG_0.25 (0.25 lb DMG/ton feed), 17-wk) was 0.3%^d, the “Lameness (pigs removed to hospital pens due to lameness)” value (growing pigs; DMG_0.50 (0.50 lb DMG/ton feed), 17-wk) was 0.7%^cd and the “Lameness (pigs removed to hospital pens due to lameness)” value (growing pigs; DMG_0.75, 17-wk) was 1.4%^cd. For the same compound, the “Incidence of lameness compared to Control” value (growing pigs; regardless of dietary concentration, statistically (P<0.10) or numerically (P>0.10)) was “reduced incidence of lameness”, the “Closeout F/G, late finishing testing period” value (finishing pigs; DMG @ 0.5 lb/ton) was 3.30 and the “Closeout F/G, late finishing testing period, % Change vs Control” value (finishing pigs; DMG @ 0.5 lb/ton) was −4.6%. For the same compound, the “Mortality, late finishing testing period, % Change vs Control” value (finishing pigs; DMG @ 0.5 lb/ton) was −39.0%, the “Reduction of morbidity compared to Control” value (finishing pigs; Na-DMG 0.50 lb/ton) was 72% and the “Reduction of total removal compared to Control” value (finishing pigs; Na-DMG 0.50 lb/ton) was 53%. For the same compound, the Morbidity (finishing pigs; [4]) was 0.36%, the Mortality (finishing pigs; [4]) was 1.08% and the “Non-selected (culls and lights)” value (finishing pigs; [4]) was 5.48%. For the same compound, the “Pigs sold to primary market” value (finishing pigs; [4]) was 93.1%, the Total pigs finished (finishing pigs; [4]) was 98.6% and the Total removal (finishing pigs; [4]) was 1.44%. For the same compound, the “Serum NEFA reduction compared to Control” value (lactating sows) was 32%, the “Calculated wean-to-finish closeout F/G, % Change vs Control” value [3] was −2.6% and the “Calculated wean-to-finish mortality, % Change vs Control” value [3] was −18.3%. For the same compound, the Calculated wean-to-finish mortality ([3]; early mortality rate of 2% combined) was 3.08%, the “Calculated wean-to-finish closeout F/G” value ([3]; feed budget of 353 lb per pig combined) was 2.58 and the Plasma homocysteine level (rats) was “significantly reduced”. The Nutrient digestibility (sows) was “improved nutrient digestibility” and the Nutrient digestibility (broilers) was “improved nutrient digestibility”.

Reference: patent US20250281440A1, “METHOD TO IMPROVE GROWTH PERFORMANCE, LIVABILITY, CARCASS CHARACTERISTICS AND/OR MILK QUALITY IN SWINE” (NutriQuest, LLC, priority 2024, published 2025)
